Reference: PubChem BioAssay AID720495 (Broad Institute, 2013)
Inconclusive results are not listed. Activity calls are given as the source filed them. How the calls were made is not given here.

biological target: Protein AF-9 (Homo sapiens) (UniProt P42568); test: inhibitors of AF4-AF9 protein interaction, dose response, biochemical, cherry-picked samples, plate reader (AID 720495); conditions: biochemical protein-protein interaction assay
Sequence (P42568 whole entry, looked up): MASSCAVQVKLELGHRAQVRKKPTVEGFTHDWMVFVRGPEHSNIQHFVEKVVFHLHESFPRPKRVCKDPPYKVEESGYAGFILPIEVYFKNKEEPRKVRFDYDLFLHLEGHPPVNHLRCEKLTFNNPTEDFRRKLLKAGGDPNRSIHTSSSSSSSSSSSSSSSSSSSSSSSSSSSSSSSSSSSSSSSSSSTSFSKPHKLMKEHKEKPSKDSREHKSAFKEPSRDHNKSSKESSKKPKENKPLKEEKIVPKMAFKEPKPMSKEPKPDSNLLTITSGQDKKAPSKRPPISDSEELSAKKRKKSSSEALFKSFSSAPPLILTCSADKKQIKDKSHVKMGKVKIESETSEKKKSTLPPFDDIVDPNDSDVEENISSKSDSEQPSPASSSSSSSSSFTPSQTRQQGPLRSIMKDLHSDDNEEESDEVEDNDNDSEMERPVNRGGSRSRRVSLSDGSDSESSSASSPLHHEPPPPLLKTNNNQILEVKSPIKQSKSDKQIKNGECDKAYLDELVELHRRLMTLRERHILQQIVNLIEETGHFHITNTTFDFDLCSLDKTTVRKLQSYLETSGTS

Compound	AC50 [µM]
CN1CCN(C2CCN(Cc3ccc(O)c4ncccc34)CC2)CC1	2.77
C[n+]1c(-c2ccc(C=NNC(=O)c3ccc(C(=O)NN=Cc4ccc(-c5cn6ccccc6[n+]5C)cc4)cc3)cc2)cn2ccccc21	0.804

Other lines, results leading:

AC50 [µM]	Compound
4.01	CCOc1ccc(NCc2cccn2-c2nnc(N3CCC(C(=O)NCCCN4CCCCC4CC)CC3)s2)cc1 (centres undefined)
3.3	COc1ccccc1C(CCNCc1ccc(N(C)C)cc1)c1ccc(OC(C)C)cc1 (centres undefined)
0.68	COc1ccc(C2CC(=O)Oc3c(C(CCN4CCCC(C)C4)c4ccc(N(C)C)cc4)c(OC)cc(OC)c32)cc1 (centres undefined)
1.04	CCCC(=O)NC(c1ccc(N(C)C)cc1)c1ccc2cccnc2c1O (centres undefined)
8.93	C[C@@H]1CN([C@@H](C)CO)C(=O)c2cc(N(C)C)ccc2O[C@@H]1CN(C)Cc1ccc(-c2ccccc2)cc1
2.31	CCCCCc1cc(=O)oc2c(C(CCN3CCCC3)c3ccc(N(C)C)cc3)c(OC)cc(OC)c12 (centres undefined)
10.4	CCC(=O)N1CC2(CCN(Cc3ccc(Cl)cc3)CC2)c2c([nH]c3cc(OC)ccc23)[C@H]1CO
0.865	CCCC(=O)NC(c1ccc(OC)cc1)c1ccc2cccnc2c1O (centres undefined)
4.41	COC(=O)c1ccc2nc(C)cc(Nc3ccc(N(C)C)cc3)c2c1
2.36	CCN(CC)c1ccc(/C=C/c2ccc3ccc(OC)cc3[n+]2CC)cc1

same assay, conditions: biochemical protein-protein interaction assay, at 10 µM (top of the series)

Compound	activity change, negative = inhibition
COCCCNCC(O)COc1cccc2[nH]c(C)cc12 (centres undefined)	inactive
COc1ccccc1NC(c1cccnc1)c1ccc2cccnc2c1O (centres undefined)	inactive
O=S(=O)(c1ccc(Cl)cc1)N1CCN(Cc2ccc(O)c3ncccc23)CC1	inactive
NC(=O)C1CCN(C2=C(NS(=O)(=O)c3ccc(Br)cc3)C(=O)c3ccccc3C2=O)CC1	inactive
COc1ccc(N2CCN(C(=O)C3CCCN(S(=O)(=O)c4c(C)noc4C)C3)CC2)cc1 (centres undefined)	inactive
Cc1cc2c(cc1C)N[C@]1(C[C@H]3CCCC(=O)N4CC[C@@H](C1)[C@@H]34)C(=NC(C)(C)CC(C)(C)C)N2	inactive
CCN(CC)c1ccc(N=Cc2cc(Br)ccc2O)cc1	inactive
Cc1cc(/C=N/n2c(COc3ccccc3C)nc3ccccc3c2=O)c(O)c([N+](=O)[O-])c1	inactive

The remaining lines, values ahead:

activity change, negative = inhibition	Compound
inactive	CCN1CCCc2cc(CN(CCN3CCOCC3)C(=S)Nc3cccc(C)c3)ccc21
inactive	CN(C)c1ccc(NC2=C(Cl)C(=O)c3ccccc3C2=O)cc1
inactive	COc1ccc(CCNCc2cc(C)n(-c3ccc(OC)cc3)c2C)cc1
inactive	CCc1ccc(-c2nc(CSCC(=O)N3CCN(c4ncccn4)CC3)c(C)o2)cc1
